Results as given in paper PMC11876601 (Molecular Systems Biology, 2025).
Read-outs that look alike come from different tables or passages of the source.

Assays:
[1] = test system: WEE1; conditions: WEE1, 4 cell line mix lysate, Kinobeads y, ref Klaeger et al. (2017); cited from earlier work
[2] = test system: NEK3; design: method as in Klaeger et al. (2017); conditions: NEK3, 4 cell line mix lysate, Kinobeads y, ref Klaeger et al. (2017), cited from earlier work
[3] = molecular target: BCR; conditions: 4 cell line mix lysate, Kinobeads y, ref Klaeger et al. (2017), cited from earlier work
[4] = test system: AZI2; conditions: AZI2, 4 cell line mix lysate, Kinobeads y, ref Klaeger et al. (2017), cited from earlier work
[5] = test system: GRB2; design: method as in Klaeger et al. (2017); conditions: GRB2, 4 cell line mix lysate, Kinobeads y, ref Klaeger et al. (2017), cited from earlier work
[6] = test system: ABL1; conditions: ABL1, 4 cell line mix lysate, Kinobeads y, ref Klaeger et al. (2017); cited from earlier work
[7] = test system: CSNK2A2; conditions: CSNK2A2, 4 cell line mix lysate, Kinobeads y, ref Klaeger et al. (2017), cited from earlier work
[8] = molecular target: ADK; conditions: 4 cell line mix lysate, Kinobeads y, ref Klaeger et al. (2017), cited from earlier work
[9] = test system: ADCK1; design: method as in Klaeger et al. (2017); conditions: ADCK1, 4 cell line mix lysate, Kinobeads y, ref Klaeger et al. (2017), cited from earlier work
[10] = molecular target: TANK; conditions: 4 cell line mix lysate, Kinobeads y, ref Klaeger et al. (2017), cited from earlier work
[11] = test system: EPHB6; design: method as in Klaeger et al. (2017); conditions: EPHB6, 4 cell line mix lysate, Kinobeads y, ref Klaeger et al. (2017), cited from earlier work
[12] = test system: TBKBP1; conditions: TBKBP1, 4 cell line mix lysate, Kinobeads y, ref Klaeger et al. (2017), cited from earlier work
[13] = test system: IKBKE; conditions: 4 cell line mix lysate, Kinobeads y, ref Klaeger et al. (2017); cited from earlier work
[14] = test system: TBK1; conditions: TBK1, 4 cell line mix lysate, Kinobeads y, ref Klaeger et al. (2017); cited from earlier work
[15] = test system: CSNK2A1;CSNK2A3; conditions: CSNK2A1;CSNK2A3, 4 cell line mix lysate, Kinobeads y, ref Klaeger et al. (2017), cited from earlier work
[16] = molecular target: GAK; conditions: 4 cell line mix lysate, Kinobeads y, ref Klaeger et al. (2017), cited from earlier work
[17] = test system: INPPL1; design: method as in Klaeger et al. (2017); conditions: INPPL1, 4 cell line mix lysate, Kinobeads y, ref Klaeger et al. (2017), cited from earlier work
[18] = molecular target: EIF3J; conditions: 4 cell line mix lysate, Kinobeads y, ref Klaeger et al. (2017), cited from earlier work
[19] = molecular target: CSNK2B; conditions: 4 cell line mix lysate, Kinobeads y, ref Klaeger et al. (2017), cited from earlier work
[20] = test system: MAP3K4; conditions: cited from earlier work; for Kd: read-out: KDapp
[21] = test system: 13 PDAC cell lines; assay: Phenotypic drug combination viability screen (ATPlite, 72 h), cell line panel; type: cell-based, human; conditions: of 13 cell lines; Bliss model
Description: Cell viability was assessed by measuring ATP levels to indicate metabolic activity.
Afterward, small amounts were transferred to 384-well intermediate plates (Greiner Bio-One GmbH, Germany). […] For drug combination screening, 1000 to 5000 cells were seeded into 384-well plates (CulturPlate™, Perkin Elmer, MA, USA) using a Multidrop™ Combi Reagent Dispenser (Thermo Scientific, MA, USA) in 50 µl medium per well 24 h prior to drug treatment (seeding densities see Appendix Table S1). […] The final DMSO concentration in each well was 0.2%. […] Eight wells per plate without library drug served as negative controls, and sixteen wells per plate containing 5 µM Staurosporine served as positive controls. Control plates not containing any drug were used to correct for incubation effects, and data quality was assessed by calculation of Z-prime of positive and negative controls according to1 Z-prime=1−3SDpos+3SDneg/[…] where SD is the standard deviation. […] Dose–response curves from the experimental and hypothetical data were compared, and shifts in AUC were used to describe combination effects (AUC∆ = AUChypothetical − AUCexperimental). […] Only combinations with R^2 > 0.8 in both conditions were considered in the synergy analysis.

[22] = test system: PaTu-8988-T; assay: cells; design: ATPlite luminescence viability of PDAC cell lines, 11-dose single-agent curves, 4-parameter fit; conditions: Homo sapiens, PaTu 8988t, 72 h, read-out: EC50 [nM]
How it was run: (§1)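 Drug-combination screening used cells plated at 1000 to 5000 per well one day before treatment. Final DMSO was 0.2%. Each plate held untreated negative-control wells and 5 µM staurosporine positive-control wells.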

[23] = test system: HuP-T4; assay: cells; design: ATPlite luminescence viability of PDAC cell lines, 11-dose single-agent curves, 4-parameter fit; conditions: Homo sapiens, HuP-T4, 72 h, read-out: EC50 [nM]
How it was run: as §1

[24] = test system: Dan-G; assay: cells; design: ATPlite luminescence viability of PDAC cell lines, 11-dose single-agent curves, 4-parameter fit; conditions: 72 h, read-out: EC50 [nM]
How it was run: as §1

[25] = test system: AsPC-1; assay: cells; design: ATPlite luminescence viability of PDAC cell lines, 11-dose single-agent curves, 4-parameter fit; conditions: Homo sapiens, ASPC1, 72 h, read-out: EC50 [nM]
How it was run: as §1

[26] = test system: Capan-1; assay: cells; design: ATPlite luminescence viability of PDAC cell lines, 11-dose single-agent curves, 4-parameter fit; conditions: Homo sapiens, CAPAN-1, 72 h, read-out: EC50 [nM]
How it was run: as §1

[27] = test system: FAMPAC; assay: cells; design: ATPlite luminescence viability of PDAC cell lines, 11-dose single-agent curves, 4-parameter fit; conditions: 72 h, read-out: EC50 [nM]
How it was run: as §1

[28] = test system: PSN-1; assay: cells; design: ATPlite luminescence viability of PDAC cell lines, 11-dose single-agent curves, 4-parameter fit; conditions: Homo sapiens, PSN1, 72 h, read-out: EC50 [nM]
How it was run: as §1

[29] = test system: Suit2-07; assay: cells; design: ATPlite luminescence viability of PDAC cell lines, 11-dose single-agent curves, 4-parameter fit; conditions: 72 h, read-out: EC50 [nM]
How it was run: as §1

[30] = test system: Colo-357; assay: cells; design: ATPlite luminescence viability of PDAC cell lines, 11-dose single-agent curves, 4-parameter fit; conditions: Homo sapiens, COLO357, 72 h, read-out: EC50 [nM]
How it was run: as §1

[31] = test system: HPDE; assay: cells; design: ATPlite luminescence viability of PDAC cell lines, 11-dose single-agent curves, 4-parameter fit; conditions: HPDE, 72 h, read-out: EC50 [nM]
How it was run: as §1

[32] = test system: MiaPaCa-2; assay: cells; design: ATPlite luminescence viability of PDAC cell lines, 11-dose single-agent curves, 4-parameter fit; conditions: Homo sapiens, MIA PaCa-2, 72 h, read-out: EC50 [nM]
How it was run: as §1

[33] = test system: 30 PDAC cell lines; conditions: ref Jaaks et al, 2022; cited from earlier work
[34] = test system: BxPC-3; assay: cells; design: ATPlite luminescence viability of PDAC cell lines, 11-dose single-agent curves, 4-parameter fit; conditions: Homo sapiens, BXPC-3, 72 h, read-out: EC50 [nM]
How it was run: as §1

[35] = test system: advanced PDAC patients; design: method as in Moore et al, 2007; conditions: Erlotinib + GEM, ref Moore et al, 2007; cited from earlier work
[36] = test system: PaTu-8988-T; assay: cells; design: Viability of PDAC cell lines, ATPlite luminescence, 11-dose single-agent curve fit; conditions: Homo sapiens, PaTu 8988t, 72 h, read-out: EC50 [nM]
How it was run: (§2)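 screening used cells plated at 1000 to 5000 per well one day before treatment. Final DMSO was 0.2%. Each plate held untreated negative-control wells and 5 µM staurosporine positive-control wells.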

[37] = test system: HuP-T4; assay: cells; design: Viability of PDAC cell lines, ATPlite luminescence, 11-dose single-agent curve fit; conditions: Homo sapiens, HuP-T4, 72 h, read-out: EC50 [nM]
How it was run: as §2

[38] = test system: AsPC-1; assay: cells; design: Viability of PDAC cell lines, ATPlite luminescence, 11-dose single-agent curve fit; conditions: Homo sapiens, ASPC1, 72 h, read-out: EC50 [nM]
How it was run: as §2

[39] = test system: Capan-1; assay: cells; design: Viability of PDAC cell lines, ATPlite luminescence, 11-dose single-agent curve fit; conditions: Homo sapiens, CAPAN-1, 72 h, read-out: EC50 [nM]
How it was run: as §2

[40] = test system: PANC-1; assay: cells; design: Viability of PDAC cell lines, ATPlite luminescence, 11-dose single-agent curve fit; conditions: Homo sapiens, PANC-1, 72 h, read-out: EC50 [nM]
How it was run: as §2

[41] = test system: PSN-1; assay: cells; design: Viability of PDAC cell lines, ATPlite luminescence, 11-dose single-agent curve fit; conditions: Homo sapiens, PSN1, 72 h, read-out: EC50 [nM]
How it was run: as §2

[42] = test system: MiaPaCa-2; assay: cells; design: Viability of PDAC cell lines, ATPlite luminescence, 11-dose single-agent curve fit; conditions: Homo sapiens, MIA PaCa-2, 72 h, read-out: EC50 [nM]
How it was run: as §2

[43] = MAP3K4, 4 cell line mix lysate, Kinobeads y, ref Klaeger et al. (2017)

In the case of `C=CCn1c(=O)c2cnc(Nc3ccc(N4CCN(C)CC4)cc3)nc2n1-c1cccc(C(C)(C)O)n1` [Adavosertib (MK-1775)], the EC50 [1] is given as […], the EC50 [2] is given as 980 nM and the pKDapp [2] is given as 6.08. For the same compound, the Kd ([2]; read-out: KDapp) was 837 nM, the Kd ([3]; read-out: KDapp) was […] and the EC50 [3] was 3990 nM. For the same compound, the pKDapp [3] was […], the EC50 [4] was […] and the pKDapp [4] was 5.91. The Kd ([4]; read-out: KDapp) was 1230 nM, the EC50 [5] was 2710 nM and the pKDapp [5] was […]. The Kd ([5]; read-out: KDapp) was […], the EC50 [6] was 6340 nM and the EC50 [7] was 428 nM. For the same compound, the pKDapp [7] was […], the Kd ([7]; read-out: KDapp) was […] and the Kd ([8]; read-out: KDapp) was 12.6 nM. For the same compound, the EC50 [8] was 12.6 nM, the pKDapp [8] was 7.90 and the EC50 [9] was 3050 nM. The pKDapp [9] was […], the Kd ([9]; read-out: KDapp) was […] and the Kd ([10]; read-out: KDapp) was […]. For the same compound, the EC50 [10] was 2870 nM, the pKDapp [10] was […] and the EC50 [11] was 549 nM. The pKDapp [11] was 6.47, the Kd ([11]; read-out: KDapp) was 337 nM and the EC50 [12] was 2180 nM. The pKDapp [12] was […], the Kd ([12]; read-out: KDapp) was […] and the EC50 [13] was […]. The EC50 [14] was […], the EC50 [15] was 627 nM and the pKDapp [15] was 6.20. For the same compound, the Kd ([15]; read-out: KDapp) was 627 nM, the Kd ([16]; read-out: KDapp) was […] and the EC50 [16] was 745 nM. The pKDapp [16] was […], the EC50 [17] was 1470 nM and the pKDapp [17] was 6.15. The Kd ([17]; read-out: KDapp) was 712 nM, the Kd ([18]; read-out: KDapp) was 500 nM and the EC50 [18] was 500 nM. For the same compound, the pKDapp [18] was 6.30, the Kd ([19]; read-out: KDapp) was […] and the EC50 [19] was […]. For the same compound, the pKDapp [19] was […], the EC50 [20, 43] was 77.5 nM and the pKDapp [20, 43] was 7.28. The Kd [20, 43] was 52 nM.
With `C=CCn1c(=O)c2cnc(Nc3ccc(N4CCN(C)CC4)cc3)nc2n1-c1cccc(C(C)(C)O)n1` [Adavosertib] the “number of cell lines with synergy with GEM” value [21] was […], the EC50 [22] was 154 nM and the EC50 [23] was 5570 nM. For the same compound, the EC50 [24] was 147 nM, the EC50 [25] was 171 nM and the EC50 [26] was 327 nM. The EC50 [27] was 268 nM, the EC50 [28] was 464 nM and the EC50 [29] was 206 nM. It also gave an EC50 [30] of 135 nM, an EC50 [31] of 946 nM and an EC50 [32] of 244 nM. For the same compound, the “synergy with GEM” value [33] was “to a lesser extent” and the Kd ([20]; Kinobeads, ref Klaeger et al, 2017a, Reinecke et al, 2023a) was 52 nM.
For `NC(=O)Nc1cc(-c2cccc(F)c2)sc1C(=O)N[C@H]1CCCNC1` [AZD7762], the “synergy with GEM” value [33] is given as “nearly half of the cell lines”.
In the case of `C#Cc1cccc(Nc2ncnc3cc(OCCOC)c(OCCOC)cc23)c1` [Erlotinib], the EC50 [24] is reported as 630 nM, the EC50 [27] is reported as 3940 nM and the EC50 [34] is reported as 2060 nM. The EC50 [29] was > 10000 nM, the EC50 [30] was 1040 nM and the EC50 [31] was 552 nM. The “improvement of overall survival over GEM alone” value [35] was “two weeks”, the EC50 [36] was 5260 nM and the EC50 [37] was 8400 nM. The EC50 [38] was > 10000 nM, the EC50 [39] was 2940 nM and the EC50 [40] was 36.8 nM. The EC50 [41] was 5920 nM and the EC50 [42] was 4050 nM.
